Measurements published in a melting point compilation (Tetko et al.; mined from patent text by program, amines drawn as free bases though some values may be those of a salt).

melting point [°C]	Structure (SMILES)
278 to 279	CC(C)(C(=O)c1ccccc1OCC(=O)O)N1CCN(c2ccncc2)CC1
60 to 62	CNC(=O)[C@H](O)C(C)(C)C
179 to 182	NC(=O)CCN1CCN(C2Cc3cc(Cl)ccc3Sc3cc(F)ccc32)CC1 (stereo not given)
50 to 53	O=C(C(CCCl)c1ccccc1)N1CCCCCC1 (stereo not given)
141	CCOC(=O)C1=C(C)NN=C(CC)C1c1ccc([N+](=O)[O-])cc1 (stereo not given)
113 to 114	Cc1cnc(N)cc1C
139 to 140	C[C@H](NC(=O)Cc1cc(F)cc(F)c1)C(=O)N[C@@H]1C(=O)Nc2ccccc2S[C@@H]1c1ccc(Br)s1
95 to 96	O=C(c1ccccc1)N1CCC(COc2ccccc2)CC1
94 to 96	Oc1cc(-c2ncc(C(F)(F)F)cc2F)c(F)cc1Cl
46 to 49	CCC(CC)Nc1c([N+](=O)[O-])cc(C#N)c(COC)c1[N+](=O)[O-]
169 to 170	CN(C)CCNC(=O)Cc1ccc(NC(=O)C2CCN(C(=O)OCc3ccccc3)CC2)cc1
94 to 98	Cc1cccc(C(=O)Nc2cccc(C(F)(F)F)c2)c1NCc1ccncc1
241 to 242	CCn1cc(C(=O)O)c(=O)c2cc(F)c(N3CCN(Cc4ccc([N+](=O)[O-])cc4)CC3)c(F)c21
117 to 119	CCOc1cc(OCC)c2c(C)c(CCO)c(=O)oc2c1
119 to 122	CC(C)(C)OC(=O)Nc1ccc(-c2ccc(OCc3ccccc3)nc2)cc1[N+](=O)[O-]
44 to 47	CCOC(=O)c1nsc(Br)c1O
207	CC(=O)Nc1ccc(C(=O)N(C)Cc2cccc(-c3ccc(CC4SC(=O)NC4=O)cc3)c2)cc1 (stereo not given)
< 37	COc1cc2cc(C(C)C)sc2c(Cl)c1Cl
167 to 169	O=C(Nc1ccc(O)cc1)C(=O)N1CCC(Cc2ccccc2)CC1

melting point [°C]	Structure (SMILES)
197 to 200	O=C(CC1CCCCC1)NC1CC(C(=O)O)Nc2cc(Cl)cc(Cl)c21 (stereo not given)
77 to 81	CNC(=O)C(=O)CCCCCCc1csc(-c2ccc(Cl)cc2)n1
93.5 to 94.5	O=C(NCc1ccc(OCCN2CCCC2)cc1)c1ccc2c(c1)OCO2
205 to 206	Cn1ncc(/C=C/C(=O)Nc2ccc(Cc3nc4c(s3)CCCC4)cc2)c1-c1ccc(F)cc1
166 to 168	Cc1c(NC(=O)C(CS)CC(C)C)cccc1C(=O)O (stereo not given)
254 to 256	COc1cc2cc(C3=NNC(=O)CC3)sc2cc1OC
163 to 164	CCOC(=O)C1=C(COCC(C)(O)Cc2ccccn2)NC(C)=C(C(=O)OC)C1c1cccc(Cl)c1Cl (stereo not given)
118 to 120	CCN(C=C(C#N)C#N)c1cc(C(F)(F)F)cc(C(F)(F)F)c1
94 to 95	CC(C)CC(O)(Cn1ccnn1)c1ccccc1 (stereo not given)
181	CNC(=S)C1(c2cc(C)ccn2)CCCS1 (stereo not given)
226 to 228	CC(C)C(NC(=O)c1ccccc1SSc1ccccc1C(=O)NC(C(=O)O)C(C)C)C(=O)O (stereo not given)
171 to 172	COC(=O)c1ccc(Cn2ncc3ccc([N+](=O)[O-])cc32)cc1
171	COc1cc(NC(=O)OC(C)(C)C)c([N+](=O)[O-])cc1I
> 270	CSc1ncc(C(=O)NCCO)c(Nc2ccc3[nH]ncc3c2)n1
249 to 250	Cc1cc(-c2ccc(Cl)cc2)cn2cc(C(=O)NC(Cc3ccc(OCc4ccccc4)cc3)C(=O)O)nc12 (stereo not given)
183 to 185	CC(C)(C#N)c1ccc2nc(O)nnc2c1
48.2 to 49.6	CC(C)(C)OC(=O)C(ON)c1ccccc1 (stereo not given)
96 to 100	COC(=O)COc1ccc2cc(CNC(=O)OC(C)(C)C)ccc2c1Br

Structure (SMILES)	melting point [°C]
CC1(C)CCC(C)(C)c2c(O)cc(-c3ccccc3)cc21	121
O=C1c2c(Cl)cccc2-n2cnc(-c3cnco3)c2[C@@H]2CCCN12	201 to 202
N#CC12CCN(CC1)CC2Cc1ccccc1 (stereo not given)	82.5 to 84
